Laboratory results taken from ChEMBL document CHEMBL1124314, “Development of phosphonate derivatives of gadolinium chelates for NMR imaging of calcified soft tissues” (J Med Chem, 1989).

Assays:
Rattus norvegicus [1] = organism: Rattus norvegicus; test: Biodistribution in rat muscle in the presence of NCAGd/0.01 M lig; format: ADME, organism-based, Muscle tissue; settings: in vivo
Rattus norvegicus [2] = organism: Rattus norvegicus; test: Biodistribution in rat bone in the presence of NCAGd/0.01 M lig; format: ADME, organism-based, Bone element; settings: in vivo
[3] = Ratio of uptake of [GD] in bone 1 hr post injection with NCA GD dose to that of blood; format: functional
[4] = Ratio of uptake of [GD] in bone 1 hr post injection with 0.002 to that of muscle; format: functional
Rattus norvegicus [5] = organism: Rattus norvegicus; test: Uptake of [GD] in bone 1 hr post injection with 0.005 of the compound; format: functional, Bone element
[6] = Ratio of uptake of [GD] in bone 1 hr post injection with 0.002 to that of blood; format: functional
Rattus norvegicus [7] = organism: Rattus norvegicus; test: Biodistribution in rat kidney in the presence of NCAGd/0.01 M lig; format: ADME, organism-based; settings: in vivo
Rattus norvegicus [8] = organism: Rattus norvegicus; test: Uptake of [GD] in bone 1 hr post injection with 0.002 of the compound; format: functional, Bone element
[9] = Ration of Uptake of [GD] in bone 1 hr post injection with NCA GD dose to that of muscle; format: functional
Rattus norvegicus [10] = organism: Rattus norvegicus; test: Uptake of [GD] in bone 1 hr post injection with NCA GD dose; format: functional, Bone element
Rattus norvegicus [11] = organism: Rattus norvegicus; test: Biodistribution in rat spleen in the presence of NCAGd/0.01 M lig; format: ADME, organism-based; settings: in vivo
Rattus norvegicus [12] = organism: Rattus norvegicus; test: Biodistribution in rat heart in the presence of NCAGd/0.01 M lig; format: ADME, organism-based; settings: in vivo
[13] = Ratio of uptake of [GD] in bone 1 hr post injection with 0.0005 to that of blood; format: functional
Rattus norvegicus [14] = organism: Rattus norvegicus; test: Biodistribution in rat liver by in the presence of NCAGd/0.01 M lig; format: ADME, organism-based; settings: in vivo
[15] = Ratio of uptake of [GD] in bone 1 hr post injection with 0.0005 to that of muscle; format: functional
Rattus norvegicus [16] = organism: Rattus norvegicus; test: Uptake of [GD] in bone 1 hr post injection with 0.0005 of the compound; format: functional, Bone element
[17] = Ratio of uptake of [GD] in bone 1 hr post injection with 0.005 to that of blood; format: functional
Rattus norvegicus [18] = organism: Rattus norvegicus; test: Biodistribution in rat blood in the presence of NCAGd/0.01 M lig; format: ADME, organism-based; settings: in vivo
[19] = Ratio of uptake of [GD] in bone 1 hr post injection with 0.005 to that of muscle; format: functional
Rattus norvegicus [20] = organism: Rattus norvegicus; test: Biodistribution in rat liver in the presence of NCA Gd/0.01 M lip; format: ADME, organism-based; settings: in vivo
Rattus norvegicus [21] = organism: Rattus norvegicus; test: Biodistribution in rat muscle in the presence of NCA Gd/0.01 M lip; format: ADME, organism-based, Muscle tissue; settings: in vivo
Rattus norvegicus [22] = organism: Rattus norvegicus; test: Biodistribution in rat bone in the presence of 0.05 M Gd/0.15 M lig; format: ADME, organism-based, Bone element; settings: in vivo
Rattus norvegicus [23] = organism: Rattus norvegicus; test: Biodistribution in rat blood in the presence of NCA Gd/0.01 M lip; format: ADME, organism-based; settings: in vivo
Rattus norvegicus [24] = test: Biodistribution in rat liver in the presence of 50 Gd/kg at 6 hr; format: ADME, organism-based; settings: in vivo
Rattus norvegicus [25] = organism: Rattus norvegicus; test: Biodistribution in rat kidney in the presence of NCA Gd/0.01 M lip; format: ADME, organism-based; settings: in vivo
Rattus norvegicus [26] = test: Biodistribution in rat blood in the presence of 50 Gd/kg at 15 min; format: ADME, organism-based; settings: in vivo, 0.25 h
Rattus norvegicus [27] = test: Biodistribution in rat s. intestine in the presence of 50 Gd/kg at 6 hr; format: ADME, organism-based; settings: in vivo
Rattus norvegicus [28] = organism: Rattus norvegicus; test: Biodistribution in rat heart in the presence of NCA Gd/0.01 M lip; format: ADME, organism-based; settings: in vivo
Rattus norvegicus [29] = test: Biodistribution in rat spleen in the presence of 50 Gd/kg at 2 hr; format: ADME, organism-based; settings: in vivo
Rattus norvegicus [30] = organism: Rattus norvegicus; test: Biodistribution in rat s. intestine in the presence of NCA (No carrier added); format: ADME, organism-based; settings: in vivo
Rattus norvegicus [31] = organism: Rattus norvegicus; test: Biodistribution in rat liver by in the presence of 0.05 M Gd/0.15 M lig; format: ADME, organism-based; settings: in vivo
Rattus norvegicus [32] = test: Biodistribution in rat blood in the presence of 50 Gd/kg at 2 hr; format: ADME, organism-based; settings: in vivo
Rattus norvegicus [33] = test: Biodistribution in rat liver in the presence of 50 Gd/kg at 2 hr; format: ADME, organism-based; settings: in vivo
Rattus norvegicus [34] = test: Biodistribution in rat blood in the presence of 50 Gd/kg at 6 hr; format: ADME, organism-based; settings: in vivo
Rattus norvegicus [35] = test: Biodistribution in rat stomach in the presence of 50 Gd/kg at 15 min; format: ADME, organism-based; settings: in vivo, 0.25 h
Rattus norvegicus [36] = organism: Rattus norvegicus; test: Biodistribution in rat blood in the presence of 0.05 M Gd/0.15 M lig; format: ADME, organism-based; settings: in vivo
Rattus norvegicus [37] = test: Biodistribution in rat l. intestine in the presence of 50 Gd/kg at 6 hr; format: ADME, organism-based; settings: in vivo
Rattus norvegicus [38] = organism: Rattus norvegicus; test: Biodistribution in rat l. intestine in the presence of 0.01 M carrier at 1 hr; format: ADME, organism-based; settings: in vivo
Rattus norvegicus [39] = organism: Rattus norvegicus; test: Biodistribution in rat kidney in the presence of 0.05 M Gd/0.15 M lig; format: ADME, organism-based; settings: in vivo
Rattus norvegicus [40] = organism: Rattus norvegicus; test: Biodistribution in rat heart in the presence of 0.05 M Gd/0.15 M lig; format: ADME, organism-based; settings: in vivo
Rattus norvegicus [41] = test: Biodistribution in rat s. intestine in the presence of 50 Gd/kg at 2 hr; format: ADME, organism-based; settings: in vivo
Rattus norvegicus [42] = organism: Rattus norvegicus; test: Biodistribution in rat spleen in the presence of NCA Gd/0.01 M lip; format: ADME, organism-based; settings: in vivo
Rattus norvegicus [43] = test: Biodistribution in rat liver by in the presence 50 Gd/kg at 15 min; format: ADME, organism-based; settings: in vivo, 0.25 h
Rattus norvegicus [44] = test: Biodistribution in rat spleen in the presence of 50 Gd/kg at 6 hr; format: ADME, organism-based; settings: in vivo
Rattus norvegicus [45] = test: Biodistribution in rat stomach in the presence of 50 Gd/kg at 2 hr; format: ADME, organism-based; settings: in vivo
Rattus norvegicus [46] = test: Biodistribution in rat l. intestine in the presence of 50 Gd/kg at 2 hr; format: ADME, organism-based; settings: in vivo
Rattus norvegicus [47] = organism: Rattus norvegicus; test: Biodistribution in rat muscle in the presence of 0.05 M Gd/0.15 M lig; format: ADME, organism-based, Muscle tissue; settings: in vivo
Rattus norvegicus [48] = test: Biodistribution in rat spleen in the presence of 50 Gd/kg at 15 min; format: ADME, organism-based; settings: in vivo, 0.25 h
Rattus norvegicus [49] = organism: Rattus norvegicus; test: Biodistribution in rat bone in the presence of NCA Gd/0.01 M lip; format: ADME, organism-based, Bone element; settings: in vivo

Q: For `CC(O)C(C)NCCNC(C)C(C)O` (centres undefined), which ID/organ (Rattus norvegicus [1]) is on record?
A: 5.85%

Q: And the ID/organ (Rattus norvegicus [2])?
A: 51.4%

Q: And the Ratio [3]?
A: 16.5%

Q: And the Ratio [4]?
A: 1.81%

Q: What about the ID (Rattus norvegicus [5]) of the same molecule?
A: 5.07%

Q: And the Ratio [6]?
A: 0.206%

Q: What about the ID/organ (Rattus norvegicus [7]) of the same molecule?
A: 2.87%

Q: What about the ID (Rattus norvegicus [8]) of the same molecule?
A: 6.9%

Q: What about the Ratio [9] of the same molecule?
A: 8.81%

Q: What about the ID (Rattus norvegicus [10]) of the same molecule?
A: 51.4%

Q: And the ID/organ (Rattus norvegicus [11])?
A: 0.44%

Q: What about the ID/organ (Rattus norvegicus [12]) of the same molecule?
A: 0.295%

Q: And the Ratio [13]?
A: 0.234%

Q: And the ID/organ (Rattus norvegicus [14])?
A: 28.5%

Q: What about the Ratio [15] of the same molecule?
A: 2.19%

Q: And the ID (Rattus norvegicus [16])?
A: 6.54%

Q: What about the Ratio [17] of the same molecule?
A: 0.167%

Q: And the ID/organ (Rattus norvegicus [18])?
A: 3.12%

Q: What about the Ratio [19] of the same molecule?
A: 1.67%

Q: For `CC(C(=O)O)C(C(=O)O)(P(=O)(O)O)P(=O)(O)O` (centres undefined), which ID/organ (Rattus norvegicus [20]) is on record?
A: 67.3%

Q: What about the ID/organ (Rattus norvegicus [21]) of the same molecule?
A: 2.38%

Q: What about the ID/organ (Rattus norvegicus [22]) of the same molecule?
A: 1.18%

Q: And the ID/organ (Rattus norvegicus [23])?
A: 2.62%

Q: And the ID/organ (Rattus norvegicus [24])?
A: 80.2%

Q: What about the ID/organ (Rattus norvegicus [25]) of the same molecule?
A: 0.339%

Q: And the ID/organ (Rattus norvegicus [26])?
A: 23.4%

Q: And the ID/organ (Rattus norvegicus [27])?
A: 0.675%

Q: And the ID/organ (Rattus norvegicus [28])?
A: 0.099%

Q: And the ID/organ (Rattus norvegicus [29])?
A: 12.5%

Q: What about the ID/organ (Rattus norvegicus [30]) of the same molecule?
A: 0.86%

Q: And the ID/organ (Rattus norvegicus [31])?
A: 73%

Q: What about the ID/organ (Rattus norvegicus [32]) of the same molecule?
A: 0.26%

Q: What about the ID/organ (Rattus norvegicus [33]) of the same molecule?
A: 74.3%

Q: What about the ID/organ (Rattus norvegicus [34]) of the same molecule?
A: 0.217%

Q: And the ID/organ (Rattus norvegicus [35])?
A: 0.221%

Q: And the ID/organ (Rattus norvegicus [36])?
A: 0.319%

Q: What about the ID/organ (Rattus norvegicus [37]) of the same molecule?
A: 0.293%

Q: And the ID/organ (Rattus norvegicus [38])?
A: 0.138%

Q: And the ID/organ (Rattus norvegicus [39])?
A: 0.447%

Q: What about the ID/organ (Rattus norvegicus [40]) of the same molecule?
A: 0.059%

Q: What about the ID/organ (Rattus norvegicus [41]) of the same molecule?
A: 1.03%

Q: What about the ID/organ (Rattus norvegicus [42]) of the same molecule?
A: 2.67%

Q: What about the ID/organ (Rattus norvegicus [43]) of the same molecule?
A: 34.2%

Q: What about the ID/organ (Rattus norvegicus [44]) of the same molecule?
A: 8.12%

Q: And the ID/organ (Rattus norvegicus [45])?
A: 0.178%

Q: What about the ID/organ (Rattus norvegicus [46]) of the same molecule?
A: 0.334%

Q: What about the ID/organ (Rattus norvegicus [47]) of the same molecule?
A: 0.124%

Q: And the ID/organ (Rattus norvegicus [48])?
A: 11.2%

Q: And the ID/organ (Rattus norvegicus [49])?
A: 6.91%
